Experiments:
[1] = tested on: Zucker diabetic fatty (ZDF, fa/fa) rats; experiment: Cataract formation in Zucker diabetic fatty rats fed genistein in chow for six months; format: in vivo, rat
Protocol: (§1) Thirty pair of litter mates of Zucker rats, i.e., thirty male retired breeder Zucker diabetic fatty (ZDF, fa/fa) rats and thirty male retired breeder lean Zucker (fa/+) rats, were obtained (Genetic Models, Inc., Indianapolis, Ind.). The animals were treated in accordance with The Association for Research in Vision and Ophthalmology (ARVO) Statement for the Use of Animals in Ophthalmic and Vision Research. The average blood glucose value was more than 500 mg/dl for the Zucker diabetic fatty rats and 120 mg/dl for the control lean rats as measured by glucose oxidase assay at the time of death (Danis et al. (1993), supra).
(§2) Zucker diabetic fatty rats were divided into four groups and fed Purina 5008 rat chow containing varying concentrations of genistein: 0 mg/kg chow, 75 mg/kg chow, 150 mg/kg chow and 300 mg/kg chow. Cataract formation was assessed after six months of treatment. The extent of cataract formation was determined after dilating pupils with phenylephrine (2.5%) and Tropicamide (1%) in rats under general anesthesia resulting from intraperitoneal injections of ketamine (40 mg/kg) and xylazine (4 mg/kg). Disease progression was categorized as total cataract, partial cataract (mainly minimal posterior subcapsular cataract), or no cataract.

lean Zucker (fa/+) rats = experiment: Cataract formation in lean Zucker control rats fed genistein in chow; format: in vivo, rat; conditions: lean Zucker rats, 0, 75, 150 or 300 mg Genistein/kg chow, six months
Protocol: as §1, §2
Zucker lean rats were also divided into 4 groups and fed Purina 5008 chow containing 0, 75, 150 or 300 mg Genistein/ kg chow. […]

retina = experiment: Retinal toxicity by electroretinography after oral genistein; format: in vivo; conditions: 75 mg/kg/day to 300 mg/kg/day, six months, Zucker diabetic fatty rats
Excerpt: (§3) An advantage of genistein is that it is very safe and efficacious. […] Also, no effect of orally administered genistein was found with respect to the weight of the ovaries and the uterus in female rats.

[2] = Food intake and body weight after oral genistein; format: in vivo; conditions: oral administration, male and female rats
Excerpt: as §3

[3] = Weight of the ovaries and the uterus after oral genistein; format: in vivo; conditions: oral administration, female rats
Excerpt: as §3

O=c1c(-c2ccc(O)cc2)coc2cc(O)cc(O)c12 [genistein, 5,7-dihydroxy-3-(4-hydroxyphenyl)-4H-1-benzopyran-4-one]
Partial Cataract (number of rats) ([1]; 75 mg/kg chow, n = 7): 3
Total Cataract (number of rats) ([1]; 75 mg/kg chow, n = 7): 4
No Cataract (number of rats) ([1]; 150 mg/kg chow, n = 8): 2
Partial Cataract (number of rats) ([1]; 150 mg/kg chow, n = 8): 2
Total Cataract (number of rats) ([1]; 150 mg/kg chow, n = 8): 4
Partial Cataract (number of rats) ([1]; 300 mg/kg chow, n = 8): 3
Total Cataract (number of rats) ([1]; 300 mg/kg chow, n = 8): 5
Inhibition of cataract formation ([1]; 75-300 mg/kg chow): significantly inhibits cataract formation
Cataracts in lean control rats (lean Zucker (fa/+) rats): not present
Toxicity to the retina as measured by electroretinography (retina): nontoxic to the retina
Effect on body weight [2]: no effect
Effect on food intake [2]: no effect
Effect on weight of the ovaries and the uterus [3]: no effect
